In EP4289421A1, “COMBINATION OF PALMITOYLETHANOLAMIDE (PEA) AND MELATONIN FOR THE TREATMENT OF MAST CELL HYPER-REACTIVITY” (Erbozeta S.p.A., priority 2022, dated 2023):

Tested on: human mast cell line (HMC-1.1)
Experiment: Release of pro-pain and pro-inflammatory mediators (degranulation) by activated human mast cells
Format: cell-based
Settings: HMC-1.1 activated by compound 48/80 or substance P; substances added individually or combined
Description: A human mast cell line (HMC-1.1) was activated both by compound 48/80 (a potent synthetic stimulant, available from Sigma-Aldrich) and by substance P (potent physiological stimulant, CAS number 33507-63-0). The release of pro-pain and pro-inflammatory mediators, such as histamine, TNF-α and IL-6, was then measured in the absence of PEA and melatonin, in the presence of PEA or melatonin alone as well as in the presence of PEA + melatonin. The use of mast cells of human origin, compared to classic murine mast cells, has allowed to measure, with high reliability, the release not only of histamine but also of protein mediators such as TNF-α and IL-6. The in vitro analysis then made it possible to evaluate the effects of the combination at the mast cell level in a highly specific and precise manner. A direct study on a biological organism, ultimately humans, would have been insensitive as the variation of pro-pain and pro-inflammatory mediators, detected in the blood or in any body fluid, would have depended on an action of PEA and melatonin on various cell types, and not exclusively on mast cells.

SMILES | reduction in the release of mast cell mediators (histamine, TNF-α, IL-6)
COc1ccc2[nH]cc(CCNC(C)=O)c2c1 [melatonin] | comparable reduction in the release of mast cell mediators
CCCCCCCCCCCCCCCC(=O)NCCO [PEA, palmitoylethanolamide] | comparable reduction in the release of mast cell mediators
